# Measurements taken from patent US11629055B2, “Magnesium phosphate hydrogels” (INViCARE INC., priority 2015, dated 2023).
# Experiments:
# [1] = In vitro drug release of mepivacaine (dialysis tube, PBS, 37° C., UV-Vis); assay type: physicochemical
# Method: For the in vitro drug release, mepivacaine hydrochloride was dissolved in 1 mL of gel previously prepared to reach different mepivacaine concentration. The pH of the resulting thixotropic colloidal suspension before the addition of mepivacaine was 7.95, while after the addition of the drug changed to 7.1. The gel+mepivacaine was placed in a Pur-L-Lyzer™ dialysis tube with a molecular weight cut-off of 12000 Da, while the control group is represented by the mepivacaine dissolved in PBS (2% w/v) and placed in a dialysis tubes with the same molecular weight cut-off. The tubes were incubated in 30 mL of phosphate buffer saline solution (PBS) at 37° C., and the solution was changed at different time points comprised between 0 and 168 hours. In order to calculate the amount of drug released, the extracted solutions were analyzed with UV-Vis spectroscopy following the absorption of mepivacaine at 263 nm. All experiments were done in triplicates.
# mice tibial fracture = experiment: Mice tibial fracture model (guarding, weight bearing, micro-CT, three point bending); assay type: in vivo; conditions: three point bending test, two weeks following fracture
# Method: The effects of NMP alone, NMP combined with mepivacaine and mepivacaine alone, on post-fracture mobilization, postoperative pain and bone healing were assessed in vivo using a standardized mice tibial fracture model (St-Arnaud, The Journal of steroid biochemistry and molecular biology 121, 254-256 (2010)). Thirty-two mice were randomly assigned into four groups (n=8, each); saline, mepivacaine, NMP and NMP+mepivacaine. Thirty minutes prior to surgical intervention, each mouse was injected with Carprofen (20 mg/kg; SC).
# The animal was then anesthetized with isoflurane (3-5% at the induction time and 2-2.5% during the maintenance period). […] A longitudinal skin incision was made in order to expose the right patellar tendon. […]
# Post-operative Animals' pain perception and locomotion were evaluated, at different time point; […], 3 days, one week and two weeks post fracture, by assessing mice guarding (Yasuda et al., Journal of pain research 6, 161 (2013)) and weight bearing per each leg, respectively. […] Guarding behavior was assessed as following; each mouse was placed individually in a clear plastic box on an elevated stainless steel mesh. […]
# Weight bearing test was performed as following; an incapacitance meter (IITC.inc, CA, US) was used for determination of hind paw weight distribution. […] The weight exerted by each hind limb was measured and averaged over a period of 5 seconds. […]
smiles,measurement,setting,value
Cc1cccc(C)c1NC(=O)C1CCCCN1C (stereo not drawn) [mepivacaine],total release of drug,"[1]; after 8 hours, PBS, 37° C.",90±5%
same,stability of mepivacaine in contact with the gel (UV-Vis spectra),[1]; after 24 hours from the beginning of the release experiment,molecular integrity of the drug
same,"force to fracture, fractured versus non-fractured tibia",mice tibial fracture,significantly different
